These are literature values, as cited in patent US20120196889A1, “CATECHOLAMINE DERIVATIVES AND PRODRUGS THEREOF” (H. Lundbeck A/S, priority 2009, published 2012).

The conditions of the series: in man after oral dosing; high hepatic first-pass metabolism.

With `CCCc1cc2c(s1)CN[C@@H]1CCc3cc(OC(C)=O)c(OC(C)=O)cc3[C@@H]21` [Adrogolide], the oral bioavailability is on record as about 4%.
